Data published in US7645752B2, “Sulfonyl substituted 1H-indoles as ligands for the 5-hydroxytryptamine receptors” (Wyeth LLC, priority 2006, dated 2010).
Counter-ions that a name gives are not always drawn. Like-named read-outs stand apart in the source and are kept apart here.

Assays:
[1] = target: T1, human cloned 5-HT6 receptors (Homo sapiens, UniProt P50406); assay: 5-HT6 binding affinity, [3H]-LSD displacement on membranes of Hela cells; conditions: for inhibition at 1 µM: 5-HT6 binding, at 1 micromole, read-out: % inhibition at 1 micromole
T1 construct: expressed in transfected cells; host or cells: HeLa cells
Description: The affinity of test compounds for the 5-HT6 receptor is evaluated in the following manner. Cultured Hela cells expressing human cloned 5-HT6 receptors are harvested and centrifuged at low speed (1,000×g) for 10.0 min to remove the culture media. The harvested cells are suspended in half volume of fresh physiological phosphate buffered saline solution and recentrifuged at the same speed. This operation is repeated. The collected cells are then homogenized in ten volumes of 50 mM Tris.HCl (pH 7.4) and 0.5 mM EDTA. The homogenate is centrifuged at 40,000×g for 30.0 min and the precipitate is collected. The obtained pellet is resuspended in 10 volumes of Tris.HCl buffer and recentrifuged at the same speed. The final pellet is suspended in a small volume of Tris.HCl buffer and the tissue protein content is determined in aliquots of 10-25 microliter volumes. […] The volume of the suspended cell membranes is adjusted to give a tissue protein concentration of 1.0 mg/mL of suspension. The prepared membrane suspension (10 times concentrated) is aliquoted in 1.0 mL volumes and stored at −70° C. until used in subsequent binding experiments.
Binding experiments are performed in a 96 well microtiter plate format in a total volume of 200 microliters. […] The test compounds are added in 20.0 microliter volume.
The bound complex caught on the filter disk is allowed to air dry and the radioactivity is measured in a Packard TopCount® equipped with six photomultiplier detectors, after the addition of 40.0 microliter Microscint®-20 scintillant to each shallow well.
Binding in the presence of varying concentrations of test compound is expressed as a percentage of specific binding in the absence of test compound. The results are plotted as log % bound versus log concentration of the test compound.

[2] = Table 1, [3H]-LSD 3.0 nM, Hela cell membranes, read-out: Ki (nM) @ 5-HT6 receptor

T1 sequence (P50406 whole entry): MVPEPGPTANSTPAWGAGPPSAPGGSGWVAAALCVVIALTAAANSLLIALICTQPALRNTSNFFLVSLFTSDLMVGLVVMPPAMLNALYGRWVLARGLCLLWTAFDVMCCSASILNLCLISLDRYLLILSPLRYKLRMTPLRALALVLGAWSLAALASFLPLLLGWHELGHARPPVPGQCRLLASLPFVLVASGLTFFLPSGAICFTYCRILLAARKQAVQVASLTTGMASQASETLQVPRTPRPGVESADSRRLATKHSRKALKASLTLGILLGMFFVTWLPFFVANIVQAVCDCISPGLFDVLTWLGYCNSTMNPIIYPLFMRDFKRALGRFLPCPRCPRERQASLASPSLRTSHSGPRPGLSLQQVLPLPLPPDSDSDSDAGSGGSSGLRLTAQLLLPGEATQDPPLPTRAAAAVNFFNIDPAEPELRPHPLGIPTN

Ki [1, 2] | Compound | further results
 | O=S(=O)(c1ccccc1)c1c[nH]c2ccc(CCNC3CC3)cc12 (as salt: hydrochloride) [Example 4, N-{2-[3-(phenylsulfonyl)-1H-indol-5-yl]ethyl}cyclopropanamine] | melting point: 205 to 208 °C
 | CN(C)CCc1ccc2[nH]cc(S(=O)(=O)c3ccccc3)c2c1 (as salt: hydrochloride) [Example 1, N,N-dimethyl-N-{2-[3-(phenylsulfonyl)-1H-indol-5-yl]ethyl}amine] | melting point: 251 °C
 | O=S(=O)(c1ccccc1)c1c[nH]c2c(CCNC3CC3)cccc12 (as salt: hydrochloride) [Example 22, N-{2-[3-(phenylsulfonyl)-1H-indol-7-yl]ethyl}cyclopropanamine] | melting point: 213 to 216 °C (dec.)
 | O=S(=O)(c1ccccc1)c1c[nH]c2cccc(CCNC3CCC3)c12 (as salt: hydrochloride) [Example 37, N-{2-[3-(phenylsulfonyl)-1H-indol-4-yl]ethyl}cyclobutanamine] | melting point: 95 to 103 °C
 | O=S(=O)(c1ccccc1)c1c[nH]c2cccc(CCNCc3ccccc3)c12 (as salt: hydrochloride) [Example 47, N-benzyl-N-{2-[3-(phenylsulfonyl)-1H-indol-4-yl]ethyl}amine] | melting point: 172 °C
 | CC(C)(C)CNCCc1cccc2[nH]cc(S(=O)(=O)c3ccccc3)c12 (as salt: hydrochloride) [Example 49, N-(2,2-dimethylpropyl)-N-{2-[3-(phenylsulfonyl)-1H-indol-4-yl]ethyl}amine] | melting point: 135 °C
 | O=S(=O)(c1ccccc1)c1c[nH]c2cccc(CCNC3CC3)c12 (as salt: hydrochloride) [Example 36, N-{2-[3-(phenylsulfonyl)-1H-indol-4-yl]ethyl}cyclopropanamine] | melting point: 145 to 150 °C
 | O=S(=O)(c1ccccc1)c1c[nH]c2ccc(CCN3CCNCC3)cc12 (as salt: hydrochloride) [Example 13, 3-(phenylsulfonyl)-5-(2-piperazin-1-ylethyl)-1H-indole] | melting point: 220 °C
24 nM | O=S(=O)(c1ccccc1)c1c[nH]c2ccc(CCNCc3ccccc3)cc12 [Example 6, N-benzyl-N-{2-[3-(phenylsulfonyl)-1H-indol-5-yl]ethyl}amine] | 
 | O=S(=O)(c1ccccc1)c1c[nH]c2cc(CCN3CCNCC3)ccc12 [Example 101, 3-phenylsulfonyl-6-(2-piperazin-1-yl-ethyl)-1H-indole] | inhibition at 1 µM ([1]; Table 1): 55%
14 nM | CC(C)CNCCc1cccc2[nH]cc(S(=O)(=O)c3cccc(F)c3)c12 [Example 77, N-isobutyl-N-{2-[3-(3-fluorophenylsulfonyl)-1H-indol-4-yl]ethyl}amine] | 
 | O=S(=O)(c1cccc(F)c1)c1c[nH]c2cccc(CCNCC3CCCO3)c12 (stereo not shown) [Example 82, N-{2-[3-(3-fluorophenylsulfonyl)-1H-indol-4-yl]ethyl}-N-((tetrahydrofur-2-yl)methyl)amine] | inhibition at 1 µM ([1]; Table 1): 72%
2.3 nM | CNCCc1cccc2c(S(=O)(=O)c3ccccc3)c[nH]c12 [Example 19, N-methyl-N-{2-[3-(phenylsulfonyl)-1H-indol-7-yl]ethyl}amine] | 
 | CC(C)CNCCc1ccc2c(S(=O)(=O)c3ccccc3)c[nH]c2c1 [Example 102, N-isobutyl-N-{2-[3-(phenylsulfonyl)-1H-indol-6-yl]ethyl}amine] | inhibition at 1 µM ([1]; Table 1): 72%
9.4 nM | CC(C)NCCc1cccc2c(S(=O)(=O)c3ccccc3)c[nH]c12 [Example 21, N-{2-[3-(phenylsulfonyl)-1H-indol-7-yl]ethyl}propan-2-amine] | 
150 nM | CCCNCCc1ccc2c(S(=O)(=O)c3ccccc3)c[nH]c2c1 [Example 89, N-{2-[3-(phenylsulfonyl)-1H-indol-6-yl]ethyl}-N-propylamine] | 
39 nM | O=S(=O)(c1ccccc1)c1c[nH]c2ccc(CCN3CCOCC3)cc12 [Example 11, 5-(2-morpholin-4-ylethyl)-3-(phenylsulfonyl)-1H-indole] | 
 | CCCNCCc1ccc2[nH]cc(S(=O)(=O)c3ccccc3)c2c1 [Example 2, N-{2-[3-(phenylsulfonyl)-1H-indol-5-yl]ethyl}-N-propylamine] | Ki [1]: 34.7 nM
68 nM | O=S(=O)(c1ccccc1)c1c[nH]c2ccc(CCN3CCNCC3)cc12 [Example 13, 3-(phenylsulfonyl)-5-(2-piperazin-1-ylethyl)-1H-indole] | 
18 nM | O=S(=O)(c1ccccc1)c1c[nH]c2c(CCNC3CCCC3)cccc12 [Example 23, N-{2-[3-(phenylsulfonyl)-1H-indol-7-yl]ethyl}cyclopentanamine] | 

Ki [1, 2] | Compound | further results
9.1 nM | CCCNCCc1cccc2c(S(=O)(=O)c3ccccc3)c[nH]c12 [Example 20, N-{2-[3-(phenylsulfonyl)-1H-indol-7-yl]ethyl}-N-propylamine] | 
 | CCC(C)CNCCc1ccc2c(S(=O)(=O)c3ccccc3)c[nH]c2c1 (stereo not shown) [Example 104, {2-[3-(phenylsulfonyl)-1H-indol-6-yl]-ethyl}-(2-methyl-butyl)-amine] | inhibition at 1 µM ([1]; Table 1): 69%
 | CN(CCc1ccc2c(S(=O)(=O)c3ccccc3)c[nH]c2c1)C1CCCCC1 [Example 96, N-cyclohexyl-N-methyl-N-{2-[3-(phenylsulfonyl)-1H-indol-6-yl]ethyl}amine] | inhibition at 1 µM ([1]; Table 1): 75%
10.3 nM | O=S(=O)(c1ccccc1)c1c[nH]c2ccc(CCN3CCCCC3)cc12 [Example 10, 3-(phenylsulfonyl)-5-(2-piperidin-1-ylethyl)-1H-indole] | 
2.3 nM | CN(C)CCc1cccc2c(S(=O)(=O)c3ccccc3)c[nH]c12 [Example 18, N,N-dimethyl-N-{2-[3-(phenylsulfonyl)-1H-indol-7-yl]ethyl}amine] | 
13 nM | O=S(=O)(c1ccccc1)c1c[nH]c2c(CCN3CCCCC3)cccc12 [Example 27, 3-(phenylsulfonyl)-7-(2-piperidin-1-ylethyl)-1H-indole] | 
21 nM | CCN(CC)CCc1cccc2c(S(=O)(=O)c3ccccc3)c[nH]c12 [Example 25, N,N-diethyl-N-{2-[3-(phenylsulfonyl)-1H-indol-7-yl]ethyl}amine] | 
10.5 nM | CNCCc1ccc2c(S(=O)(=O)c3ccccc3)c[nH]c2c1 [Example 87, N-methyl-N-{2-[3-(phenylsulfonyl)-1H-indol-6-yl]ethyl}amine] | 
15 nM | O=S(=O)(c1ccccc1)c1c[nH]c2ccc(CCNC3CC3)cc12 [Example 4, N-{2-[3-(phenylsulfonyl)-1H-indol-5-yl]ethyl}cyclopropanamine] | 
12.3 nM | CCN(CC)CCc1ccc2c(S(=O)(=O)c3ccccc3)c[nH]c2c1 [Example 97, N,N-diethyl-N-{2-[3-(phenylsulfonyl)-1H-indol-6-yl]ethyl}amine] | 
99 nM | O=S(=O)(c1ccccc1)c1c[nH]c2c(CCN3CCOCC3)cccc12 [Example 28, 7-(2-morpholin-4-ylethyl)-3-(phenylsulfonyl)-1H-indole] | 
 | CNCCc1cccc2[nH]cc(S(=O)(=O)c3cccc(F)c3)c12 [Example 63, N-methyl-N-{2-[3-(3-fluorophenylsulfonyl)-1H-indol-4-yl]ethyl}amine] | inhibition at 1 µM ([1]; Table 1): 61%
 | O=S(=O)(c1cccc(F)c1)c1c[nH]c2cccc(CCN3CCOCC3)c12 [Example 76, 4-(2-morpholin-4-ylethyl)-3-(3-fluorophenylsulfonyl)-1H-indole] | inhibition at 1 µM ([1]; Table 1): 62%
28 nM | O=S(=O)(c1ccccc1)c1c[nH]c2ccc(CCN3CCCC3)cc12 [Example 9, 3-(phenylsulfonyl)-5-(2-pyrrolidin-1-ylethyl)-1H-indole] | 
 | CN(C)CCCNCCc1cccc2[nH]cc(S(=O)(=O)c3cccc(F)c3)c12 [Example 83, N′-{2-[3-(3-Fluorophenylsulfonyl)-1H-indol-4-yl]-ethyl}-N,N-dimethyl-propane-1,3-diamine] | inhibition at 1 µM ([1]; Table 1): 42%
11 nM | CCN(C)CCc1cccc2c(S(=O)(=O)c3ccccc3)c[nH]c12 [Example 24, N-ethyl-N-methyl-N-{2-[3-(phenylsulfonyl)-1H-indol-7-yl]ethyl}amine] | 
72 nM | O=S(=O)(c1cccc(F)c1)c1c[nH]c2cccc(CCN3CCCC3)c12 [Example 74, 3-(3-fluorophenylsulfonyl)-4-(2-pyrrolidin-1-ylethyl)-1H-indole] | 
 | CN(CCO)CCc1cccc2[nH]cc(S(=O)(=O)c3cccc(F)c3)c12 [Example 84, 2-({2-[3-(3-Fluorophenylsulfonyl)-1H-indol-4-yl]-ethyl}-methyl-amino)-ethanol] | inhibition at 1 µM ([1]; Table 1): 73%
9 nM | CN(C)CCc1ccc2[nH]cc(S(=O)(=O)c3ccccc3)c2c1 [Example 1, N,N-dimethyl-N-{2-[3-(phenylsulfonyl)-1H-indol-5-yl]ethyl}amine] | 
 | CCC(CC)NCCc1ccc2c(S(=O)(=O)c3ccccc3)c[nH]c2c1 [Example 103, (1-Ethyl-propyl)-{2-[3-(phenylsulfonyl)-1H-indol-6-yl]-ethyl}-amine] | inhibition at 1 µM ([1]; Table 1): 63%
